Reference: patent publication US20130225830A1, “POLYMORPHS OF FEBUXOSTAT” (MAPI PHARMA LIMITED, priority 2010, published 2013)
≈ marks a conversion by molar mass, not a printed value. Where two headings read alike, the source gives them in different places.

Assays:
Type in all cases: physicochemical
[1] = Aqueous solubility measurements; conditions: for solubility at 24 h: 25 °C, thermodynamic from solid, read-out: HPLC solubility; for pH: final pH of saturated solution
Protocol: Testing media: water, pH 1.2, 4.5, 6.8, 7.4 USP buffers, 0.01 N HCl, 0.1 N HCl, SGF, FaSSIF, FeSSIF.
The various testing media were prepared as follows:
pH 1.2 (USP): 50 mL of 0.2 M potassium chloride solution were placed in a 200 mL volumetric flask to which 85.0 mL of 0.2M hydrochloric acid solution were added followed by the addition of water to obtain the required volume.
pH 4.5 (USP): 50 mL of 0.2 M potassium biphthalate solution were placed in a 200 mL volumetric flask to which 8.8 mL of 0.2 M sodium hydroxide solution were added followed by the addition of water to obtain the required volume.
pH 6.8 (USP): 50 mL of 0.2 M monobasic potassium phosphate solution were placed in a 200 mL volumetric flask to which 22.4 mL of 0.2 M sodium hydroxide solution were added followed by the addition of water to obtain the required volume.
pH 7.4 (USP): 50 mL of 0.2 M monobasic potassium phosphate solution were placed in a 200 mL volumetric flask to which 39.1 mL of 0.2 M sodium hydroxide solution were added followed by the addition of water to obtain the required volume.
Simulated gastric fluid (SGF): 0.01 N HCl, 0.05% sodium lauryl sulfate, and 0.2% NaCl.
Fasted state simulated intestinal fluid (FaSSIF): 29 mM NaH2PO4, 3 mM Na taurocholate, 0.75 mM lecithin, 103 mM NaCl, and NaOH to obtain pH 6.5.
Fed state simulated intestinal fluid (FeSSIF): 144 mM acetic acid, 15 mM Na taurocholate, 3.75 mM lecithin, 204 mM NaCl, and NaOH to obtain pH 5.0.
Testing procedure: The tested febuxostat form was placed in each of the different media and was kept shaken for 24 hours at 25° C. Then, the saturated solution was filtered. The concentration of the febuxostat form in filtrate was determined by HPLC. The final pH was then tested. The test was conducted in duplication.

[2] = Hygroscopicity measurements (DVS sorption/desorption profiles); conditions: 25° C.
Protocol: The sorption/desorption profiles of the forms of the present invention were tested at 25° C. under 0-90% relative humidity. The forms of the present invention were classified according to the following criteria: Deliquescent: Sufficient water is absorbed to form a liquid. […] Hygroscopic: Increase in mass is less than 15% and equal to or greater than 2%. Slightly hygroscopic: Increase in mass is less than 2% and equal to or greater than 0.2%. Non-hygroscopic: Increase in mass is less than 0.2%.

[3] = Bulk and tapped density measurements
Protocol: Bulk density testing: A febuxostat form in an amount which is sufficient to complete the test was passed through a 1.0 mm (No. 18) screen to break up agglomerates that may have formed during storage. The febuxostat form was then weighed (M) and the powder was added into a 10 mL graduated cylinder. The powder was carefully leveled without compacting, and the unsettled apparent volume, Vo, was read. The bulk density, in g per mL, was calculated by the formula: Bulk Density=M/Vo Tapped density testing: A febuxostat form in an amount which is sufficient to complete the test was passed through a 1.0 mm (No. 18) screen to break up agglomerates that may have formed during storage. The febuxostat form was then weighed and the powder was added into a 10 mL graduated cylinder. The powder was carefully leveled without compacting. The cylinder was tapped 500 times initially and the tapped volume, Va, was measured to the nearest graduated unit. The tapping was then repeated for additional 750 times and the tapped volume, Vb, was measured to the nearest graduated unit. If the difference between the two volumes was less than 2%, Vb was taken as the final tapped volume, Vf. The tapped density, in g per mL, was calculated by the formula: Tapped Density=M/Vf

[4] = media 0.01N HCl, 24 hours at 25° C.
[5] = media 0.1N HCl, 24 hours at 25° C.
[6] = media FaSSIF, 24 hours at 25° C.
[7] = media FeSSIF, 24 hours at 25° C.
[8] = media pH 1.2 (USP), 24 hours at 25° C.
[9] = media pH 4.5 (USP), 24 hours at 25° C.
[10] = media pH 6.8 (USP), 24 hours at 25° C.
[11] = media pH 7.4 (USP), 24 hours at 25° C.
[12] = media water, 24 hours at 25° C.

Cc1nc(-c2ccc(OCC(C)C)c(C#N)c2)sc1C(=O)O [Form G of U.S. Pat. No. 6,225,474, 2-(3-cyano-4-isobutoxyphenyl)-4-methyl-5-thiazolecarboxylic acid, reference compound]
solubility at 24 h ([1]; FaSSIF, pH 6.5, fassif, media FaSSIF, 24 hours at 25° C.): 0.448 mg/mL (≈ 1420 µM)
solubility at 24 h ([1]; FeSSIF, pH 5, fessif, media FeSSIF, 24 hours at 25° C.): 0.132 mg/mL (≈ 418 µM)
pH [1, 4]: 1.987
pH [1, 5]: 0.945
pH [1, 6]: 6.384
pH [1, 7]: 4.965
pH ([1]; media SGF, 24 hours at 25° C.): 2.118
pH [1, 8]: 1.089
pH [1, 9]: 4.469
pH [1, 10]: 6.686
pH [1, 11]: 6.985
pH ([1]; media water, shaken 24 hours at 25° C.): 8.416
Visual solubility [1, 4]: few particles
Visual solubility [1, 5]: few particles
Visual solubility [1, 6]: Turbid + few particles
Visual solubility [1, 7]: Turbid + few particles
Visual solubility ([1]; media SGF, 24 hours at 25° C.): few particles
Visual solubility [1, 8]: few particles
HPLC solubility [1, 9]: 0.00011 mg/mL
Visual solubility [1, 9]: few particles
HPLC solubility [1, 10]: 0.7649 mg/mL
Visual solubility [1, 10]: Turbid + few particles
Visual solubility [1, 11]: Slightly Turbid + few
HPLC solubility [1, 12]: 0.0298 mg/mL
Visual solubility [1, 12]: Turbid + few particles
solubility at 24 h ([1]; pH 7.4 USP buffer, pH 7.4, aqueous buffer, media pH 7.4 (USP), 24 hours at 25° C.): 3.33 mg/mL (≈ 10500 µM)
Change in Mass (%) - ref, Desorption ([2]; Target % P/P0 0.0): −0.013%
Change in Mass (%) - ref, Sorption ([2]; Target % P/P0 0.0): 0.000%
Change in Mass (%) - ref, Desorption ([2]; Target % P/P0 10.0): 1.323%
Change in Mass (%) - ref, Hysteresis ([2]; Target % P/P0 10.0): 0.241%
Change in Mass (%) - ref, Sorption ([2]; Target % P/P0 10.0): 1.082%
Change in Mass (%) - ref, Desorption ([2]; Target % P/P0 20.0): 1.540%
Change in Mass (%) - ref, Hysteresis ([2]; Target % P/P0 20.0): 0.215%
Change in Mass (%) - ref, Sorption ([2]; Target % P/P0 20.0): 1.326%
Change in Mass (%) - ref, Desorption ([2]; Target % P/P0 30.0): 1.692%
Change in Mass (%) - ref, Hysteresis ([2]; Target % P/P0 30.0): 0.219%
Change in Mass (%) - ref, Sorption ([2]; Target % P/P0 30.0): 1.473%
Change in Mass (%) - ref, Desorption ([2]; Target % P/P0 40.0): 1.806%
Change in Mass (%) - ref, Hysteresis ([2]; Target % P/P0 40.0): 0.181%
Change in Mass (%) - ref, Sorption ([2]; Target % P/P0 40.0): 1.625%
Change in Mass (%) - ref, Desorption ([2]; Target % P/P0 50.0): 1.923%
Change in Mass (%) - ref, Hysteresis ([2]; Target % P/P0 50.0): 0.173%
Change in Mass (%) - ref, Sorption ([2]; Target % P/P0 50.0): 1.750%
Change in Mass (%) - ref, Desorption ([2]; Target % P/P0 60.0): 2.074%
Change in Mass (%) - ref, Hysteresis ([2]; Target % P/P0 60.0): 0.158%
Change in Mass (%) - ref, Sorption ([2]; Target % P/P0 60.0): 1.915%
Change in Mass (%) - ref, Desorption ([2]; Target % P/P0 70.0): 2.229%
Change in Mass (%) - ref, Hysteresis ([2]; Target % P/P0 70.0): 0.119%
Change in Mass (%) - ref, Sorption ([2]; Target % P/P0 70.0): 2.109%
Change in Mass (%) - ref, Desorption ([2]; Target % P/P0 80.0): 2.420%
Change in Mass (%) - ref, Hysteresis ([2]; Target % P/P0 80.0): 0.078%
Change in Mass (%) - ref, Sorption ([2]; Target % P/P0 80.0): 2.342%
Change in Mass (%) - ref, Desorption ([2]; Target % P/P0 90.0): 2.776%
Change in Mass (%) - ref, Sorption ([2]; Target % P/P0 90.0): 2.776%
Bulk Density [3]: 0.376 g/mL
Tapped Density [3]: 0.511 g/mL
